Measured values taken from article PMC12492669, “Malic enzyme-based system for transhydrogenation between nicotinamide cofactors” (Synthetic and Systems Biotechnology, 2025).

Biological target: T1, ME (NAD-dependent malic enzyme); ME∗ (ME mutant with L310R/Q401C) (Escherichia coli, UniProt P26616)
T1 construct: gene maeA; recombinant from E. coli BL21(DE3), pET24b-ME, Ni-NTA purified; 64 kDa
Assay: malate oxidative decarboxylation, absorbance at […] nm
Assay type: biochemical
Settings: 0.5 mM NCD, 5 mM malate, 2 mM MgCl2, 50 mM HEPES pH 7.5; weak

T1 sequence (P26616 whole entry, stated change not applied): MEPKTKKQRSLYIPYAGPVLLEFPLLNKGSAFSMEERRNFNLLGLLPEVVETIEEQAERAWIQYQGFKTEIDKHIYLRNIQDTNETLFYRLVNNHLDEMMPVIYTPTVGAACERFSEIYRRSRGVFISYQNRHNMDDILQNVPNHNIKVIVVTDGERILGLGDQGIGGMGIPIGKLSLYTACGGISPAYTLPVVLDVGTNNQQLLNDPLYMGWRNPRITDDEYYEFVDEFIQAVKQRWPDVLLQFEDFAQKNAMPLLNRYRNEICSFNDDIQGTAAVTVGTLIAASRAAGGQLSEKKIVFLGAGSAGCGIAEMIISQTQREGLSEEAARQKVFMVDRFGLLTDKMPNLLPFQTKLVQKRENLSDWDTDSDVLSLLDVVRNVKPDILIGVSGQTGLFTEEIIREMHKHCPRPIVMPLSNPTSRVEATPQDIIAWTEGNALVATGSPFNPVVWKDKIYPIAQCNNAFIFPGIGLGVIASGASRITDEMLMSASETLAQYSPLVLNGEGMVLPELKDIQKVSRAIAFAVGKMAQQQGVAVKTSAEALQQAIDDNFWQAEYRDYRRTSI

NC(=O)c1ccc[n+]([C@@H]2O[C@H](COP(=O)([O-])OP(=O)(O)OC[C@H]3O[C@@H](n4ccc(N)nc4=O)[C@H](O)[C@@H]3O)[C@@H](O)[C@H]2O)c1 [NCD]
malate oxidative decarboxylation, absorbance at 340 nm: ME exhibited the highest activity towards NAD and weak activity towards NCD and NADP
